Source: US9226506B2, “Methods of weed control in chicory” (Dow AgroSciences LLC, priority 2013, dated 2016)

How the values were obtained:
[1] = test system: Artemisia biennis (biennial wormwood), ARTRI; assay: Field trial, post-emergence weed control in chicory; assay type: in vivo; conditions: 3 trials, 30 days after last application
Experimental: (§1) Field trials were conducted in Northern France and Belgium, both of which are major areas for root chicory and whitloof chicory production. Trials were conducted in accordance with EPPO standard PP 1/99(3) entitled “Weeds in Roots Vegetables,” PP 1/152(4) entitled “Design and Analysis of Efficacy Evaluation Trials,” PP 1/135(3) entitled “Phytotoxic Assessment,” and PP 1/181(4) entitled “Conduct and Reporting of Efficacy Evaluation Trials Including Good Experimental Practice,” all of which are incorporated herein by reference in their entirety.
(§2) Application to all field trials was made using a small plot precision sprayer operating at between 160-400 kilopascals (kPa) pressure, delivering a spray volume of 150-400 liters per hectare (L/ha). Nozzles were of a flat fan type. Trial plot size ranged from 4.5×2.5 square meters (m^2) to 10.5×2.5 m^2. Plots were replicated 3 or 4 times and were arranged in a randomized block design within each trial. All trials received a pre-emergence application of BONALAN® at 6 L/ha (benfluralin; 180 grams active ingredient per liter (g ai/L); commercially available from Dow AgroSciences LLC) with incorporation to prevent the emergence of grasses which could complicate the assessment of broadleaf control.
(§3) In whitloof chicory (Cichorium intybus), treatments were evaluated which included either two or three post-emergence applications of herbicide. Multiple applications of herbicide were evaluated for their ability to control weed emergence during the extended period of time required for chicory cultivation. Trials included different combinations of application rate and application timing. Broadcast applications were made from May to July, covering a range of possible application timings. Penoxulam was applied at a maximum total rate of 15 g/ha per season, applied in two or three applications with a minimum of seven days between applications. Treatment with penoxsulam involved application of either BOA® or VIPER® (2.14% weight per weight (w/w) oil dispersions of penoxsulam commercially available from Dow AgroSciences LLC). Trials were also conducted using another ALS mode-of-action herbicide (i.e., the sulfonylurea triflusulfuron-methyl). Triflusulfuron-methyl was applied at a maximum total rate of 30 g/ha per season, applied in two or three applications with a minimum of seven days between applications. Treatment with triflusulfuron-methyl involved application of SAFARI® (triflusulfuron-methyl; commercially available from DuPont Crop Protection).
(§4) Prior to treatment application, assessments of weed populations (number of plants per m^2) were carried out using a quadrant square and an appropriate number of sampling points.
(§5) 1) Visual rating in percent of the overall volume reduction of vegetation for each species compared to the nearest untreated plot (Plant/Control/% visual; 0%=no control; 100%=all weeds dead). Assessments of this type were performed by Dow AgroSciences LLC in France.
(§6) Assessments of weed control were carried out at 14, 28, 56 and 84 days or longer after each application timing (DAAA=days after application A, DAAB=days after application B or DAAC=days after application C).

[2] = test system: Capsella bursa-pastoris (shepherd's purse), CAPBP; assay: as above; assay type: in vivo; conditions: 2 trials, 30 days after last application
Experimental: as §1, §2, §3, §4, §5, §6

[3] = test system: Sonchus sp. (sow-thistle), SONSS; assay: as above; assay type: in vivo; conditions: 1 trial, 30 days after last application
Experimental: as §1, §2, §3, §4, §5, §6

[4] = test system: chicory (varieties Ecrine, Hermès); assay: Chicory leaf development after post-emergence applications; parameters: species or system Cichorium intybus; conditions: in vivo
Experimental: as §1
Application to all field trials was made using a small plot precision sprayer operating at between 160-400 kilopascals (kPa) pressure, delivering a spray volume of 150-400 liters per hectare (L/ha). Nozzles were of a flat fan type. Trial plot size ranged from 4.5×2.5 square meters (m^2) to 10.5×2.5 m^2. Plots were replicated 3 or 4 times and were arranged in a randomized block design within each trial. […]
In whitloof chicory (Cichorium intybus), treatments were evaluated which included either two or three post-emergence applications of herbicide. Multiple applications of herbicide were evaluated for their ability to control weed emergence during the extended period of time required for chicory cultivation. […]

[5] = test system: chicory (varieties Ecrine, Hermès); assay: Yield of chicons after forcing; assay type: in vivo, Cichorium intybus; conditions: 171 DAAC and 21 days after start of forcing; for Yield of Chicons, Brut, Average / Yield of Chicons, Brut, Ecrine / Yield of Chicons, Brut, Hermès: total weight of chicons; for Yield of Chicons, Brut, Average: average of both varieties; for Yield of Chicons, Extra + 1, Ecrine / Yield of Chicons, Extra + 1, Hermès: weight of Extra and First Class chicons; for Yield of Chicons, Net, Ecrine / Yield of Chicons, Net, Hermès: weight of marketable chicons
Experimental: Trials were also performed to investigate the effect of post-emergence applications of penoxsulam or SAFARI® (triflusulfuron-methyl) on the yield of chicons in two different varieties of chicory. The trial was carried out on plots measuring 3×5 meters. Two varieties of chicory (Hermes and Ecrine) were sown. Treatments were carried out, as described above (a) 18 days after sowing, (b) 25 days after sowing, and (c) 32 days after sowing. Trial assessments were carried out 21 DAAC and 46 DAAC on the number of plants per linear meter, and on their development stage (number of leaves per plant).
Harvest was carried out 171 DAAC on 4 rows per plot. After harvest, the roots were counted and weighted, and the percent of roots usable for forcing was measured. The roots were then stored in a conservation room for 21 days until start of forcing phase. After 21 days of forcing, the chicons produced were weighed and classified in the commercial quality categories. The brut yield (total weight of chicons produced; marketable+non-marketable), net yield (weight of marketable chicons produced) and best class yield (Extra+1=weight of Extra and First Class chicons produced) were measured (in kilograms per 10 square meters (kg/10 m^2)).

[6] = 3 applications 3.73/3.73/3.73 g ai/ha

Compound: COc1cnc(OC)n2nc(NS(=O)(=O)c3c(OCC(F)F)cccc3C(F)(F)F)nc12 [Penoxsulam]
- % Visual Weed Control ([1]; 2 applications 5.6/5.6 g ai/ha): 64.4%
- % Visual Weed Control ([1]; 2 applications 7.5/7.5 g ai/ha): 68.3%
- % Visual Weed Control [1, 6]: 68.8%
- % Visual Weed Control ([1]; 3 applications 5/5/5 g ai/ha): 76.4%
- % Visual Weed Control ([2]; 2 applications 5.6/5.6 g ai/ha): 100%
- % Visual Weed Control ([2]; 2 applications 7.5/7.5 g ai/ha): 100%
- % Visual Weed Control [2, 6]: 100%
- % Visual Weed Control ([2]; 3 applications 5/5/5 g ai/ha): 100%
- % Visual Weed Control ([3]; 2 applications 5.6/5.6 g ai/ha): 86%
- % Visual Weed Control ([3]; 2 applications 7.5/7.5 g ai/ha): 86%
- % Visual Weed Control [3, 6]: 86%
- % Visual Weed Control ([3]; 3 applications 5/5/5 g ai/ha): 86%
- Average number of leaves (measured 21 DAAC) Average [4]: 7 a
- Yield of Chicons, Brut, Average ([5]; 5/5/5 g ai/ha): 40.7 Kg/10 m^2
- Yield of Chicons, Brut, Average ([5]; 7.5/7.5/7.5 g ai/ha): 40.8 Kg/10 m^2
- Yield of Chicons, Brut, Average ([5]; 7.5/7.5 g ai/ha): 39.6 Kg/10 m^2
- Yield of Chicons, Brut, Average ([5]; 10/10/10 g ai/ha): 45.1 Kg/10 m^2
- Yield of Chicons, Brut, Average ([5]; 11.2/11.2 g ai/ha): 39.9 Kg/10 m^2
- Yield of Chicons, Brut, Average ([5]; 15/15 g ai/ha): 39.9 Kg/10 m^2
- Yield of Chicons, Brut, Ecrine ([5]; 5/5/5 g ai/ha): 47.5 Kg/10 m^2
- Yield of Chicons, Brut, Hermès ([5]; 5/5/5 g ai/ha): 33.8 Kg/10 m^2
- Yield of Chicons, Brut, Ecrine ([5]; 7.5/7.5/7.5 g ai/ha): 45.1 Kg/10 m^2
- Yield of Chicons, Brut, Hermès ([5]; 7.5/7.5/7.5 g ai/ha): 36.5 Kg/10 m^2
- Yield of Chicons, Brut, Ecrine ([5]; 7.5/7.5 g ai/ha): 42.4 Kg/10 m^2
- Yield of Chicons, Brut, Hermès ([5]; 7.5/7.5 g ai/ha): 36.7 Kg/10 m^2
- Yield of Chicons, Brut, Ecrine ([5]; 10/10/10 g ai/ha): 50.7 Kg/10 m^2
- Yield of Chicons, Brut, Hermès ([5]; 10/10/10 g ai/ha): 39.4 Kg/10 m^2
- Yield of Chicons, Brut, Ecrine ([5]; 11.2/11.2 g ai/ha): 42.8 Kg/10 m^2
- Yield of Chicons, Brut, Hermès ([5]; 11.2/11.2 g ai/ha): 37 Kg/10 m^2
- Yield of Chicons, Brut, Ecrine ([5]; 15/15 g ai/ha): 46.4 Kg/10 m^2
- Yield of Chicons, Brut, Hermès ([5]; 15/15 g ai/ha): 33.4 Kg/10 m^2
- Yield of Chicons, Extra + 1, Ecrine ([5]; 5/5/5 g ai/ha): 29 Kg/10 m^2
- Yield of Chicons, Extra + 1, Hermès ([5]; 5/5/5 g ai/ha): 17.7 Kg/10 m^2
- Yield of Chicons, Extra + 1, Ecrine ([5]; 7.5/7.5/7.5 g ai/ha): 27.2 Kg/10 m^2
- Yield of Chicons, Extra + 1, Hermès ([5]; 7.5/7.5/7.5 g ai/ha): 18.6 Kg/10 m^2
- Yield of Chicons, Extra + 1, Ecrine ([5]; 7.5/7.5 g ai/ha): 28.2 Kg/10 m^2
- Yield of Chicons, Extra + 1, Hermès ([5]; 7.5/7.5 g ai/ha): 21.1 Kg/10 m^2
- Yield of Chicons, Extra + 1, Ecrine ([5]; 10/10/10 g ai/ha): 29.5 Kg/10 m^2
- Yield of Chicons, Extra + 1, Hermès ([5]; 10/10/10 g ai/ha): 19.2 Kg/10 m^2
- Yield of Chicons, Extra + 1, Ecrine ([5]; 11.2/11.2 g ai/ha): 25 Kg/10 m^2
- Yield of Chicons, Extra + 1, Hermès ([5]; 11.2/11.2 g ai/ha): 22.8 Kg/10 m^2
- Yield of Chicons, Extra + 1, Ecrine ([5]; 15/15 g ai/ha): 30.7 Kg/10 m^2
- Yield of Chicons, Extra + 1, Hermès ([5]; 15/15 g ai/ha): 16.1 Kg/10 m^2
- Yield of Chicons, Net, Ecrine ([5]; 5/5/5 g ai/ha): 36.4 Kg/10 m^2
- Yield of Chicons, Net, Hermès ([5]; 5/5/5 g ai/ha): 25.6 Kg/10 m^2
- Yield of Chicons, Net, Ecrine ([5]; 7.5/7.5/7.5 g ai/ha): 34.6 Kg/10 m^2
- Yield of Chicons, Net, Hermès ([5]; 7.5/7.5/7.5 g ai/ha): 25.7 Kg/10 m^2
- Yield of Chicons, Net, Ecrine ([5]; 7.5/7.5 g ai/ha): 33.9 Kg/10 m^2
- Yield of Chicons, Net, Hermès ([5]; 7.5/7.5 g ai/ha): 26.6 Kg/10 m^2
- Yield of Chicons, Net, Ecrine ([5]; 10/10/10 g ai/ha): 38.7 Kg/10 m^2
- Yield of Chicons, Net, Hermès ([5]; 10/10/10 g ai/ha): 27.7 Kg/10 m^2
- Yield of Chicons, Net, Ecrine ([5]; 11.2/11.2 g ai/ha): 33.2 Kg/10 m^2
- Yield of Chicons, Net, Hermès ([5]; 11.2/11.2 g ai/ha): 28.6 Kg/10 m^2
- Yield of Chicons, Net, Ecrine ([5]; 15/15 g ai/ha): 37.4 Kg/10 m^2
- Yield of Chicons, Net, Hermès ([5]; 15/15 g ai/ha): 22.5 Kg/10 m^2
